Several values for one entry are separate records, joined by “and”; a condition that tells them apart may be missing. Equal values may be shown once.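 Protocol summary: plate cells (96-well), add compound at 5 concentrations, incubate 48 h, interpolate endpoints linearly. Here, GI50 denotes the concentration required for 50% inhibition of growth. TGI marks complete inhibition of growth.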
Legend:
Test in all cases: NCI anticancer screen, dose series, 48 h
HOP-62 NSCLC = test system: HOP-62 NSCLC
OVCAR-5 ovarian = test system: OVCAR-5 ovarian
NCI-H23 lung = test system: NCI-H23 lung
CCRF-CEM leukemia = test system: CCRF-CEM leukemia
OVCAR-4 ovarian = test system: OVCAR-4 ovarian
DU-145 prostate = test system: DU-145 prostate
A549 NSCLC = test system: A549 NSCLC
NCI-H522 lung = test system: NCI-H522 lung
SNB-75 CNS = test system: SNB-75 CNS
CAKI-1 renal = test system: CAKI-1 renal
HT29 colon = test system: HT29 colon
LOX IMVI melanoma = test system: LOX IMVI melanoma

Compound | TGI (HOP-62 NSCLC) | TGI (OVCAR-5 ovarian) | TGI (NCI-H23 lung) | TGI (CCRF-CEM leukemia) | TGI (OVCAR-4 ovarian) | TGI (DU-145 prostate) | TGI (A549 NSCLC) | TGI (NCI-H522 lung) [µM] | TGI (SNB-75 CNS) | TGI (CAKI-1 renal) [µM] | TGI (HT29 colon) | TGI (LOX IMVI melanoma) [µM] | GI50 (HOP-62 NSCLC) | GI50 (OVCAR-5 ovarian) | GI50 (NCI-H23 lung) | GI50 (DU-145 prostate) | GI50 (A549 NSCLC) | GI50 (SNB-75 CNS)
Clc1cc2nnn(C3CCCCO3)c2cc1Cl (stereo not drawn) | > 100 µM | > 100 µM | > 100 µM | > 100 µM | > 100 µM | > 100 µM | > 100 µM | > 100 | > 100 µM | > 100 | > 100 µM | – | – | – | – | – | – | –
CC12OC3(C(O)C1O)C(C(=O)O[C@H]3CO[Si](C)(C)C(C)(C)C)C2S(=O)(=O)c1ccccc1 (stereo partly drawn) | > 100 µM | > 100 µM | – | – | 95 µM | > 100 µM | > 100 µM | 47.2 | 90.4 µM | – | > 100 µM | 46.8 | – | – | – | – | – | –
O=C1NC(=O)/C(=C/c2ccc(S(=O)(=O)N/N=C/c3ccccc3)cc2)N1 | > 100 µM | > 100 µM | > 100 µM | > 100 µM | > 100 µM | > 100 µM | > 100 µM | – | > 100 µM | > 100 | > 100 µM | > 100 | – | – | – | – | – | –
CC1(C)CC(=O)C(CC2C(=O)c3ccccc3C2=O)C(=O)C1C(=O)C(=O)Nc1cccc2ccc(O)cc12 (stereo not drawn) | – | > 100 µM | > 100 µM | > 100 µM | > 100 µM | > 100 µM | > 100 µM | > 100 | > 100 µM | > 100 | > 100 µM | > 100 | – | – | – | – | – | –
Cn1c2c(c3ccccc31)CC(=O)N1CCCC(C1)CC21OCCO1 (stereo not drawn) | > 100 µM | > 100 µM | > 100 µM | > 100 µM | > 100 µM | > 100 µM | > 100 µM | – | > 100 µM | > 100 | > 100 µM | > 100 | – | – | – | – | – | –
c1ccc(-c2sc(-c3ccccc3)c3c2C2CCC3C2)cc1 | > 100 µM | > 100 µM | > 100 µM | > 100 µM | > 100 µM | > 100 µM | > 100 µM | 60.5 | – | > 100 | 34.5 µM | > 100 | – | – | – | – | – | –
CCOC(=O)CCC(NC(=O)c1ccc(OCc2ccc3nc(OC)c(OC)nc3c2)cc1)C(=O)OCC (stereo not drawn) | > 100 µM | > 100 µM | > 100 µM | 93.5 µM | – | > 100 µM | > 100 µM | 64.8 | > 100 µM | > 100 | > 100 µM | > 100 | – | – | – | – | – | –
CC1C2CC(CC2O)C1(C)C (stereo not drawn) | > 100 µM | > 100 µM | > 100 µM | > 100 µM | > 100 µM | > 100 µM | > 100 µM | > 100 | > 100 µM | > 100 | > 100 µM | – | – | – | – | – | – | –
CC(=O)N1N=C(c2ccccc2Nc2ccccc2C2=NN(C(C)=O)C(c3ccccc3)O2)OC1c1ccccc1 (stereo not drawn) | > 100 µM | > 100 µM | > 100 µM | – | > 100 µM | > 100 µM | > 100 µM | > 100 | – | – | > 100 µM | > 100 | – | – | – | – | – | –
COc1ccc(N2C(=O)C(C#N)=C(SC)C(C#N)C2=O)cc1 (stereo not drawn) | > 100 µM | > 100 µM | – | > 100 µM | > 100 µM | – | > 100 µM | > 100 | > 100 µM | > 100 | > 100 µM | > 100 | – | – | – | – | – | –
O=C(Nc1ccc(Cl)cc1Cl)c1cc2nc3ccccc3c(=O)n2c2ccccc12 | > 10 µM | > 10 µM | > 10 µM | > 10 µM | – | > 10 µM | > 10 µM | > 10 | – | > 10 | > 10 µM | > 10 | – | – | – | – | – | –
CCSC1=C(C#N)C2(CCCCC2)C2=C(CC(C)(C)CC2=O)N1 | – | > 100 µM | > 100 µM | > 100 µM | 73.2 µM | 60.8 µM | > 100 µM | > 100 | 71.1 µM | > 100 | > 100 µM | > 100 | – | – | – | – | – | –
O=[N+]([O-])c1ccc(OP(=O)(O)OCC2OC(CP(=O)(O)O)C(O)C2O)cc1 (stereo not drawn) | > 100 µM | > 100 µM | > 100 µM | > 100 µM | > 100 µM | > 100 µM | > 100 µM | > 100 | – | > 100 | > 100 µM | > 100 | – | – | – | – | – | –
CC(C)CC(NC=O)C(=O)NC(Cc1ccccc1)NC(=O)CNC(=O)C(C)NC(=O)OC(C)(C)C (stereo not drawn) | > 100 µM | > 100 µM | > 100 µM | – | > 100 µM | > 100 µM | > 100 µM | > 100 | > 100 µM | > 100 | > 100 µM | > 100 | – | – | – | – | – | –
CCCC1=NC(C(F)(F)F)(C(F)(F)F)N=C(N2CCOCC2)O1 | > 100 µM | > 100 µM | > 100 µM | > 100 µM | > 100 µM | > 100 µM | > 100 µM | – | > 100 µM | > 100 | > 100 µM | > 100 | – | – | – | – | – | –
COc1ccc2[nH]c3c(C)c4ccnc(NCCCN(C)CCCN)c4c(C)c3c2c1 | 0.385 µM | 0.725 µM | 0.87 µM | > 32.1 µM | 0.442 µM | 0.652 µM | – | 0.137 | 0.0976 µM | 0.551 | 0.17 µM | – | – | – | – | – | – | –
O=C(O)c1cccc(S(=O)(=O)NN2C(=O)CSC2c2ccccc2Cl)c1 (stereo not drawn) | > 100 µM | > 100 µM | > 100 µM | > 100 µM | – | > 100 µM | > 100 µM | > 100 | > 100 µM | > 100 | > 100 µM | > 100 | – | – | – | – | – | –
CC1=C(S(=O)c2ccc(C)cc2)CCC2(CCCCO2)O1 (stereo not drawn) | > 100 µM | > 100 µM | > 100 µM | – | > 100 µM | > 100 µM | – | > 100 | > 100 µM | > 100 | > 100 µM | > 100 | – | – | – | – | – | –
COc1cc(CC(C)N[C@@H](C)c2ccccc2)cc(OC)c1 (stereo partly drawn) | 24.2 µM and > 100 µM | 26 µM and > 100 µM | 27.3 µM and > 100 µM | 24 µM and > 100 µM | 22.4 µM and > 100 µM | 25.2 µM and > 100 µM | 27.1 µM and > 100 µM | > 100 | 12.9 µM and > 100 µM | > 100 | 13.1 µM and > 100 µM | – | 11.2 µM and > 100 µM | 12.9 µM and > 100 µM | 11.6 µM and > 100 µM | 12.6 µM and > 100 µM | 13 µM and > 100 µM | 2.9 µM and 24.7 µM
NC(CCC(=O)NC(CSC(=O)N(O)c1ccc(Cl)cc1)C(=O)NCC(=O)O)C(=O)O (stereo not drawn) | > 0.5 µM | > 0.5 µM | > 0.5 µM | > 0.5 µM | > 0.5 µM | > 0.5 µM | > 0.5 µM | > 0.5 | > 0.5 µM | > 0.5 | > 0.5 µM | – | – | – | – | – | – | –
